From patent US5667809A, “Continuous fluorochemical microdispersions for the delivery of lipophilic pharmaceutical agents” (priority 1995, dated 1997)
Like-named read-outs stand apart in the source and are kept apart here.

How the values were obtained:
[1] = cited from earlier work
[2] = intravenous, cited from earlier work
E. coli = assay: Antibacterial activity, E. coli titer in wells with human lung epithelial cells; type: cell-based; conditions: saline
Description: The experimental procedure is followed:
a). Prepare a monolayer of normal human lung epithelial cells.
b). Add 60 μL of E. coli culture into the well with lung epithelial cells on the 96-well plate.
c). […] Incubate at 37° C. overnight.
d). Aspirate the cultured mixture and diluted with LB media (1:2).
e). Take 20 μL of diluted mixture and plate on an LB plate for an initial titration of E. coli. The E. coli plates were incubated at 37° C. overnight.
f). Various dilutions were made according to the initial titer of each mixture so as to determine the accurate titer in each well. A duplicated set of tests was conducted for each treatment.
g). The titer of E. coli was calculated by multiplying the number of colonies grown on each plate by a dilution factor for each well tested.

**Q.** Which “Log Po/w” value ([1]; octanol/water) does the source give for `Clc1cccc(Cl)c1N=C1NCCN1` [^3 H-clonidine, clonidine] here?
**A.** The value was 1.4.

**Q.** Which systemic toxicities [2] does the source give for `CC(=O)O[C@H]1C(=O)[C@@]2(C)[C@H]([C@H](OC(=O)c3ccccc3)[C@]3(O)C[C@H](OC(=O)[C@H](O)[C@@H](NC(=O)c4ccccc4)c4ccccc4)C(C)=C1C3(C)C)[C@]1(OC(C)=O)CO[C@@H]1C[C@@H]2O` [paclitaxel] here?
**A.** The systemic toxicities was “cardiac toxicity and neurotoxicity”.

**Q.** What about the systemic toxicities ([2]; listed as Taxol) of the same compound?
**A.** Its systemic toxicities is “high systemic toxicities”.

**Q.** With `c1ccc2cc3ccccc3cc2c1` [^14 C-anthracene, anthracene] as the compound, how does the “Log Po/w” value ([1]; octanol/water) read?
**A.** Its value is 4.5.

**Q.** With `CC(CN1c2ccccc2Sc2ccccc21)N(C)C` (stereo not drawn) [promethazine] as the compound, how does the “Log Po/w” value ([1]; in octanol/pH 7.4 isotonic phosphate buffer at 37° C.) read?
**A.** The value was 3.10.

**Q.** With `CCCCNc1ccc(C(=O)OCCN(C)C)cc1` [tetracaine] as the compound, how does the “Log Po/w” value ([1]; octanol/water) read?
**A.** The value was 1.90.

**Q.** Which “Log Po/w” value ([1]; pH 7.4) does the source give for `CCCCCC(=O)OCCOCn1cnc2c(=O)[nH]c(N)nc21` [hexanoyl acyclovir] here?
**A.** Its value is 0.93.

**Q.** And the “Octanol/water partition coefficient Po/w” value ([1]; pH 7.4)?
**A.** The value was 8.58.

**Q.** What does the source list for `O=C(O)c1cn(C2CC2)c2cc(N3CCNCC3)c(F)cc2c1=O` [Ciprofloxacin]?
**A.** E. coli titer (E. coli; 0.05 mg/mL): 0 colonies/ml; E. coli titer (E. coli; 0.1 mg/mL): 0 colonies/ml; E. coli titer (E. coli; 0.6 mg/mL): 0 colonies/ml

**Q.** With `CC(C)=CCN1CCC2(C)c3cc(O)ccc3CC1C2C` (stereo not drawn) [pentazocin] as the compound, how does the “Octanol/water partition coefficient Po/w” value ([1]; in octanol/pH 7.4 isotonic phosphate buffer at 37° C. (footnote a on the Log value)) read?
**A.** Its value is 150.

**Q.** Which “Log Po/w” value ([1]; octanol/water) does the source give for `CCCCC(CC)COC(=O)c1ccc(N(C)C)cc1` (stereo not drawn) [^14 C-padimate-o, padimate-o] here?
**A.** Its value is 6.6.

**Q.** What does the source list for `CCCCC(=O)OCCOCn1cnc2c(=O)[nH]c(N)nc21` [valeryl acyclovir]?
**A.** Log Po/w ([1]; pH 7.4): 0.30; Octanol/water partition coefficient Po/w ([1]; pH 7.4): 2.01
